ChEMBL document CHEMBL6109052, “Overview of the epigenetic/cytotoxic dual-target inhibitors for cancer therapy” (Eur J Med Chem, 2025)
pIC50: −log10 of the molar value.

Assays:
Histone deacetylase 2 = Histone deacetylase 2 (Homo sapiens, UniProt Q92769); assay: Inhibition of HDAC2 (unknown origin)
Histone deacetylase 8 = Histone deacetylase 8 (Homo sapiens, UniProt Q9BY41); assay: Inhibition of HDAC8 (unknown origin)
Histone deacetylase 3 = Histone deacetylase 3 (Homo sapiens, UniProt O15379); assay: Inhibition of HDAC3 (unknown origin)
Histone deacetylase 3, sequence (O15379 whole entry): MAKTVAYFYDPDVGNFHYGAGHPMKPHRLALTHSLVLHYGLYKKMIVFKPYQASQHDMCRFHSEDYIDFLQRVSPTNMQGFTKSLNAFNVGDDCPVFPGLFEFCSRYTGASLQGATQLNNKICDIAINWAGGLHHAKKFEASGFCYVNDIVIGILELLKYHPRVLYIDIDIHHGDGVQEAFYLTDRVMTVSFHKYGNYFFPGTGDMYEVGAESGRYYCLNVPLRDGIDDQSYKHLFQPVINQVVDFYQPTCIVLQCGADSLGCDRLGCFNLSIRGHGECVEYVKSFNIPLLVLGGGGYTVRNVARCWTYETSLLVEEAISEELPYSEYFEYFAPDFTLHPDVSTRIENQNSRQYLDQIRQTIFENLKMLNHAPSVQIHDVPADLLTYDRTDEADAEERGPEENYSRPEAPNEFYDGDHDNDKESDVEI

[1] = target: T1, Protein deacetylase HDAC6 (Homo sapiens, UniProt Q9UBN7); assay: Inhibition of HDAC6 (unknown origin)
T1 sequence (Q9UBN7 whole entry): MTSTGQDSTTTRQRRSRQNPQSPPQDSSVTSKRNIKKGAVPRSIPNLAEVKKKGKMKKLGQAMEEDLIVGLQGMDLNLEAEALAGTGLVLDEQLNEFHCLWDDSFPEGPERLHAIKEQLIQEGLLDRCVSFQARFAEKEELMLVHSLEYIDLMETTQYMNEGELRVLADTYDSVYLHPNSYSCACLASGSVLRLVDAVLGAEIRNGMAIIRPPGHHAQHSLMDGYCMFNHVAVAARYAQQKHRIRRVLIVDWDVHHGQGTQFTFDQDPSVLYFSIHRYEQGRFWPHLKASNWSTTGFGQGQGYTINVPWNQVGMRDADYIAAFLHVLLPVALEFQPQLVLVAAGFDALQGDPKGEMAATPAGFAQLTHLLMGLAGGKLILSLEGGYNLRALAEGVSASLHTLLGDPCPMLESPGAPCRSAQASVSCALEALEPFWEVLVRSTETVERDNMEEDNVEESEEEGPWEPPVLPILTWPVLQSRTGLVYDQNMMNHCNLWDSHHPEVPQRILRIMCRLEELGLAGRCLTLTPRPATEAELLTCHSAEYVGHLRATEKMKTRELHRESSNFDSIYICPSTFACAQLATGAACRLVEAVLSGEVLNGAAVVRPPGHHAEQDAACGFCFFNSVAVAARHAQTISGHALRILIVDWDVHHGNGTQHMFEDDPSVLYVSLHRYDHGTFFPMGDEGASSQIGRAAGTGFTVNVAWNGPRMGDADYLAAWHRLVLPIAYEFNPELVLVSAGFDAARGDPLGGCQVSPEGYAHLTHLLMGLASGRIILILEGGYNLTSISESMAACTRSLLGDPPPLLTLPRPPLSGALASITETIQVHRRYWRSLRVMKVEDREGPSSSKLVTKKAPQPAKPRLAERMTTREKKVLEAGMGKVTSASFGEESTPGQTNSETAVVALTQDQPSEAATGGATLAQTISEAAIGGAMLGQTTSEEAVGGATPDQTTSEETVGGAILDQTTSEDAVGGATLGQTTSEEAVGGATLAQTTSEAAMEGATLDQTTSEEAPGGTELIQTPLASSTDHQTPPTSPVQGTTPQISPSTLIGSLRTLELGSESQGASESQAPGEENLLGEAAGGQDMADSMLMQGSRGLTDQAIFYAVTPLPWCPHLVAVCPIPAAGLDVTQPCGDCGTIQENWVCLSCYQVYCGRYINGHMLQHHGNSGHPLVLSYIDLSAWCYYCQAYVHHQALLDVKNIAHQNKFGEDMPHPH

Histone deacetylase 1 [2] = target: T2, Histone deacetylase 1 (Homo sapiens, UniProt Q13547); assay: Inhibition of HDAC1 (unknown origin)
T2 sequence (Q13547 whole entry): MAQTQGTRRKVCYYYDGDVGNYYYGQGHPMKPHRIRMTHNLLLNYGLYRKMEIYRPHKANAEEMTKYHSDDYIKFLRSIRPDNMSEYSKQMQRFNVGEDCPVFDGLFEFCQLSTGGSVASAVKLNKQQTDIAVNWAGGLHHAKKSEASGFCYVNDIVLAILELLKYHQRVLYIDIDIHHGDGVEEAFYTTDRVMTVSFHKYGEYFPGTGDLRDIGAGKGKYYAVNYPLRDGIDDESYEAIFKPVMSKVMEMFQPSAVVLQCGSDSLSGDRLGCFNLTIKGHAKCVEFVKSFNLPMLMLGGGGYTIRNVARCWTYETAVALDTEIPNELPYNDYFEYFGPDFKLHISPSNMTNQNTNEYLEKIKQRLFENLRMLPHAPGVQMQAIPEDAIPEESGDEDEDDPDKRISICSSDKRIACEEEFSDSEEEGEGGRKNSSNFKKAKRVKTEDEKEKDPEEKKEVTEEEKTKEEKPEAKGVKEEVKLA

Histone deacetylase 4 = Histone deacetylase 4 (Homo sapiens, UniProt P56524); assay: Inhibition of HDAC4 (unknown origin)
Histone deacetylase 4, sequence (P56524 whole entry): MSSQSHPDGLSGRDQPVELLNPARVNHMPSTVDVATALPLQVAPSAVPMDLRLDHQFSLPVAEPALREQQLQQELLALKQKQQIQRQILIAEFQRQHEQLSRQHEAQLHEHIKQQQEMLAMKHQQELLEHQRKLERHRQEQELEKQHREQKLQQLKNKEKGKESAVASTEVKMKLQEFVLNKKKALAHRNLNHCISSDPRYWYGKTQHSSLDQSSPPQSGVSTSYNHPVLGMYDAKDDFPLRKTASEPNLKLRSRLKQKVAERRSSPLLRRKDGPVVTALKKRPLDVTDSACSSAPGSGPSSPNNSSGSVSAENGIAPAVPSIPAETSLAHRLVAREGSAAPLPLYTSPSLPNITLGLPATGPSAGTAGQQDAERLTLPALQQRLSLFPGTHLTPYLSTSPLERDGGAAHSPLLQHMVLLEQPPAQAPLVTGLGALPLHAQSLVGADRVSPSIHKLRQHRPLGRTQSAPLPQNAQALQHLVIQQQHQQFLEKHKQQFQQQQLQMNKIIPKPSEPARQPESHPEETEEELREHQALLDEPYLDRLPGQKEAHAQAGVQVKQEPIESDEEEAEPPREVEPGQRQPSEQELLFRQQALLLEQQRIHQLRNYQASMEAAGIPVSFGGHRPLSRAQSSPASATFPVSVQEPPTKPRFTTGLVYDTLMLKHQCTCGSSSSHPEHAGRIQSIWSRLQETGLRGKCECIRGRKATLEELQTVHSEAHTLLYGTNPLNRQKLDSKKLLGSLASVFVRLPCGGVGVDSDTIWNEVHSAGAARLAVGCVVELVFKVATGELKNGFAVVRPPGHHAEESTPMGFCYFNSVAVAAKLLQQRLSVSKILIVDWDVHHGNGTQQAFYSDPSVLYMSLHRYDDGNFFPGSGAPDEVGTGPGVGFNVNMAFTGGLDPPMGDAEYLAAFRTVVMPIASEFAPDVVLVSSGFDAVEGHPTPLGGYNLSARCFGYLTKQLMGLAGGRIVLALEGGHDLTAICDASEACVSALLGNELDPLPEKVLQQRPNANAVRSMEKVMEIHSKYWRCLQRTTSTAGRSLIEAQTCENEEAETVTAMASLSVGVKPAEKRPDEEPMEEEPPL

Histone deacetylase 5 = Histone deacetylase 5 (Homo sapiens, UniProt Q9UQL6); assay: Inhibition of HDAC5 (unknown origin)
Histone deacetylase 5, sequence (Q9UQL6 whole entry): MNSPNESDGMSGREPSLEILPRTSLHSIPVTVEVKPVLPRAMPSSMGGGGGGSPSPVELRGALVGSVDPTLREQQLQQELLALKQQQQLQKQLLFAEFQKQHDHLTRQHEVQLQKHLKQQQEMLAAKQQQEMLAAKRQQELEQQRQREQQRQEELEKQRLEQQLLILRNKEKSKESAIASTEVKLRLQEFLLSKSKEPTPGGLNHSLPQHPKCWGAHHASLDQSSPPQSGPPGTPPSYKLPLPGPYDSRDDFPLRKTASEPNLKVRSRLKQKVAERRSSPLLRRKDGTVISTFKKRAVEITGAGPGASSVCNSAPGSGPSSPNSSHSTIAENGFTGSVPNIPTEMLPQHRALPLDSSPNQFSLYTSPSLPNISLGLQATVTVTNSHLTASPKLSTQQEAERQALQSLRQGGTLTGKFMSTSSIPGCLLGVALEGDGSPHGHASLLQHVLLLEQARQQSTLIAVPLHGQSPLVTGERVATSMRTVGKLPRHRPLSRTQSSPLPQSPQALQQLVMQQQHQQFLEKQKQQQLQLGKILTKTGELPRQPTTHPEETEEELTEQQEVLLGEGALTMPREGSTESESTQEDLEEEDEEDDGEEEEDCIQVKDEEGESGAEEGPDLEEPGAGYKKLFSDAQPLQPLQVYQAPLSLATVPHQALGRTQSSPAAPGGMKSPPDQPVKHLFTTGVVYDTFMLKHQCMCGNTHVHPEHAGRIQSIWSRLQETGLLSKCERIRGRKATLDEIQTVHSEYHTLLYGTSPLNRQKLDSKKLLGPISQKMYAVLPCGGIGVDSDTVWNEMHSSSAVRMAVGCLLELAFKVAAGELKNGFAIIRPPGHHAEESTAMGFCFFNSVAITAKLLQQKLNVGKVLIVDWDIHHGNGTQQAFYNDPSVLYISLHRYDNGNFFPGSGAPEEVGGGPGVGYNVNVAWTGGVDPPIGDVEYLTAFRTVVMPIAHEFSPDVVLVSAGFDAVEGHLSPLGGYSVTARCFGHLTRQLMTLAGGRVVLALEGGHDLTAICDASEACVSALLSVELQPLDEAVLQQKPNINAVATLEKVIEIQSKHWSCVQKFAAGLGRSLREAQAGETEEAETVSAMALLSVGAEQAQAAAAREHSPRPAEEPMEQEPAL

A2780 = assay: Antiproliferative activity against human A2780 cells assessed as reduction in cell growth incubated for 72 hrs by SRB assay; assay type: functional, cell-based; conditions: A2780, 72 h
HT-29 [3] = assay: Antiproliferative activity against human HT-29 cells assessed as reduction in cell growth incubated for 72 hrs by SRB assay; assay type: functional, cell-based; conditions: HT-29, 72 h
[4] = target: Polyamine deacetylase HDAC10 (Homo sapiens, UniProt Q969S8); assay: Inhibition of human recombinant HDAC10 using fluorogenic peptide p53 (379 to 382 residues) RHKK(Ac) as substrate by fluorescence based analysis
A-431 = assay: Antiproliferative activity against human A-431 cells assessed as reduction in cell growth incubated for 72 hrs by SRB assay; assay type: functional, cell-based; conditions: A-431, 72 h
[5] = Antiproliferative activity against human Doxorubicin-resistant A2780-DX cells assessed as reduction in cell growth incubated for 72 hrs by SRB assay; assay type: functional, cell-based
CAPAN-1 = assay: Antiproliferative activity against human CAPAN-1 cells assessed as reduction in cell growth incubated for 72 hrs by SRB assay; assay type: functional, cell-based; conditions: CAPAN-1, 72 h
[6] = target: T1, Protein deacetylase HDAC6; assay: Inhibition of human recombinant HDAC6 using fluorogenic peptide p53 (379 to 382 residues) RHKK(Ac) as substrate by fluorescence based analysis
Histone deacetylase 1 [7] = target: T2, Histone deacetylase 1; assay: Inhibition of human recombinant HDAC1 using fluorogenic peptide p53 (379 to 382 residues) RHKK(Ac) as substrate by fluorescence based analysis
NCI-H460 = assay: Antiproliferative activity against human NCI-H460 cells assessed as reduction in cell growth incubated for 72 hrs by SRB assay; assay type: functional, cell-based; conditions: NCI-H460, 72 h
HeLa = assay: Antiproliferative activity against human Hela cells assessed as reduction in cell growth incubated for 72 hrs by SRB assay; assay type: functional, cell-based
[8] = Cytotoxicity against human MM472 cells assessed as reduction in cell viability incubated for 72 hrs by SRB assay; assay type: functional, cell-based; conditions: MM472, 72 h
[9] = Inhibition of human recombinant HDAC2 using fluorogenic peptide p53 (379 to 382 residues) RHKK(Ac) as substrate by fluorescence based analysis
DU-145 = assay: Antiproliferative activity against human DU-145 cells assessed as reduction in cell growth incubated for 72 hrs by SRB assay; assay type: functional, cell-based; conditions: DU-145, 72 h
HepG2 [10] = assay: Antiproliferative activity against human HepG2 cells assessed as reduction in cell growth incubated for 72 hrs by SRB assay; assay type: functional, cell-based; conditions: HepG2, 72 h
MGC-803 = assay: Antiproliferative activity against human MGC-803 cells by MTT assay; assay type: functional, cell-based
Bel-7402 = assay: Antitumor activity against human Bel-7402 cells xenografted in nude mouse model assessed as tumor growth inhibition at 50 mg/kg, IG administered for 21 days relative to control; conditions: Bel-7402, po, 504 h, read-out: TGI
HepG2 [11] = assay: Antiproliferative activity against human HepG2 cells assessed as reduction in cell viability incubated for 48 hrs by MTT assay; conditions: HepG2, 48 h
SNU-475 = assay: Antiproliferative activity against human SNU-475 cells assessed as reduction in cell viability incubated for 48 hrs by MTT assay; conditions: SNU-475, 48 h
HT-29 [12] = assay: Antiproliferative activity against human HT-29 cells; assay type: functional, cell-based
A549 [13] = assay: Antiproliferative activity against human A549 cells; assay type: functional, cell-based
HepG2 [14] = assay: Antiproliferative activity against human HepG2 cells; assay type: functional, cell-based
EA.hy 926 = assay: Antiproliferative activity against human EA.hy 926 cells assessed as reduction in cell growth incubated for 72 hrs by MTT assay; assay type: functional, cell-based; conditions: EA.hy 926, 72 h
Tubulin = assay: Inhibition of tubulin polymerization (unknown origin); assay type: protein-complex assay, Homo sapiens
[15] = Half life in BALB/c mouse at 50 mg/kg, po by LC-MS/MS analysis; assay type: ADME, organism-based; conditions: in vivo
HCT-116 [16] = assay: Antiproliferative activity against human HCT-116 cells assessed as reduction in cell viability incubated for 3 days by Cell-titer glo reagent based assay; assay type: functional; conditions: HCT-116, 72 h
[17] = target: T3, Poly [ADP-ribose] polymerase 1 (Homo sapiens, UniProt P09874); assay: Inhibition of PARP1 (unknown origin)
T3 sequence (P09874 whole entry): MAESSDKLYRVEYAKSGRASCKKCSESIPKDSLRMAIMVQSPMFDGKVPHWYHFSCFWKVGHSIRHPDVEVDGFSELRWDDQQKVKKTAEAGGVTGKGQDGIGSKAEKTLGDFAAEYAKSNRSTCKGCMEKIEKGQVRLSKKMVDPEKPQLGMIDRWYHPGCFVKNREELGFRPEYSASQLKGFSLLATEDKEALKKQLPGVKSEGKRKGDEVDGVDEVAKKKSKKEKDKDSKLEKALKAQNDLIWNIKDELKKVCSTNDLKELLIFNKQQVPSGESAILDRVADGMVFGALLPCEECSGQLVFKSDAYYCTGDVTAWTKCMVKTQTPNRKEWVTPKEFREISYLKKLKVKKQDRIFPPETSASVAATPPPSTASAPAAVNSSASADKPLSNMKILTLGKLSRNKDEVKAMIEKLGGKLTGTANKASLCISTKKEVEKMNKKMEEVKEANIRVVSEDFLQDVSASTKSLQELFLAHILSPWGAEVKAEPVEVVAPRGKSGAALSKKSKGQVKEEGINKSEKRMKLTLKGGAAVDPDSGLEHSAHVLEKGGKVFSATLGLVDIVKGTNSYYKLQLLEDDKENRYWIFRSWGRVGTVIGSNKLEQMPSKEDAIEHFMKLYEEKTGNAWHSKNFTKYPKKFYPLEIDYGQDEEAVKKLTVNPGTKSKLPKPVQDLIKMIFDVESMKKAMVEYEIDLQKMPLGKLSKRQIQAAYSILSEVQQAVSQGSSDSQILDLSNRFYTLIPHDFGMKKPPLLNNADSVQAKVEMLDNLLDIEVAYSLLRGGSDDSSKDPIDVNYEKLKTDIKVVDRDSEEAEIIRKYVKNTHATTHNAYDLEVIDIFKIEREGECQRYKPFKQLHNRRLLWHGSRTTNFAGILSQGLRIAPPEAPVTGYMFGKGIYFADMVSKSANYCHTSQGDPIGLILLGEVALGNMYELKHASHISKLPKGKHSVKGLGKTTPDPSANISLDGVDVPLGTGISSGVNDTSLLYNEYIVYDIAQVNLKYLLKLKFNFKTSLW

A549 [18] = assay: Antiproliferative activity against human A549 cells assessed as reduction in cell viability incubated for 3 days by Cell-titer glo reagent based assay; assay type: functional; conditions: A549, 72 h
[19] = Oral bioavailability in BALB/c mouse at 50 mg/kg by LC-MS/MS analysis; assay type: ADME, organism-based; conditions: in vivo
[20] = target: T3, Poly [ADP-ribose] polymerase 1; assay: Inhibition of PARP-1 (unknown origin)
MCF7 = assay: Antiproliferative activity against human MCF7 cells assessed as reduction in cell viability incubated for 48 hrs by MTT assay; assay type: functional, cell-based; conditions: MCF7, 48 h
HCC1937 = assay: Antiproliferative activity against human HCC1937 cells assessed as reduction in cell viability incubated for 48 hrs by MTT assay; assay type: functional, cell-based; conditions: HCC1937, 48 h
HCT-116 [21] = assay: Antiproliferative activity against human HCT-116 cells assessed as reduction in cell viability incubated for 48 hrs by MTT assay; assay type: functional, cell-based; conditions: HCT-116, 48 h
K562 = assay: Antiproliferative activity against human K562 cells assessed as reduction in cell viability incubated for 48 hrs by MTT assay; assay type: functional, cell-based; conditions: K562, 48 h
[22] = Metabolic stability in human liver microsomes assessed as half life for 30 mins by LC-MS/MS analysis; assay type: ADME, Microsome
[23] = Metabolic stability in human liver microsomes assessed as intrinsic clearance measured for 30 mins by LC-MS/MS analysis; assay type: ADME, Microsome; conditions: read-out: CLH
DNA topoisomerase 1 = DNA topoisomerase 1 (Homo sapiens, UniProt P11387); assay: Inhibition of Topoisomerase 1 (unknown origin)

Histone deacetylase 2, sequence (Q92769 whole entry): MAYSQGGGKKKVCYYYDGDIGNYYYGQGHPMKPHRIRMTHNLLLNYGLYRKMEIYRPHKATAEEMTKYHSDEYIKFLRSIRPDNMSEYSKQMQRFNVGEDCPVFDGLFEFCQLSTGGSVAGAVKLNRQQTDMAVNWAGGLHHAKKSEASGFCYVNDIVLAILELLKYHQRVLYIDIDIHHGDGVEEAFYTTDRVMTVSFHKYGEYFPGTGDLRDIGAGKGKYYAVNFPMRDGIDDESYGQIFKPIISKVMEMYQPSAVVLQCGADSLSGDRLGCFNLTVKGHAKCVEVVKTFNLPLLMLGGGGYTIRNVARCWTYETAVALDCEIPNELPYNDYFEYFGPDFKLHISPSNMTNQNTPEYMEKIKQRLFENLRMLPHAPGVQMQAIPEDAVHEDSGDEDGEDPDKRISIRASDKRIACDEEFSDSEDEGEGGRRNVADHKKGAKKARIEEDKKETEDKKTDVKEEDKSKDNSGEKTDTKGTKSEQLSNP
Histone deacetylase 8, sequence (Q9BY41 whole entry): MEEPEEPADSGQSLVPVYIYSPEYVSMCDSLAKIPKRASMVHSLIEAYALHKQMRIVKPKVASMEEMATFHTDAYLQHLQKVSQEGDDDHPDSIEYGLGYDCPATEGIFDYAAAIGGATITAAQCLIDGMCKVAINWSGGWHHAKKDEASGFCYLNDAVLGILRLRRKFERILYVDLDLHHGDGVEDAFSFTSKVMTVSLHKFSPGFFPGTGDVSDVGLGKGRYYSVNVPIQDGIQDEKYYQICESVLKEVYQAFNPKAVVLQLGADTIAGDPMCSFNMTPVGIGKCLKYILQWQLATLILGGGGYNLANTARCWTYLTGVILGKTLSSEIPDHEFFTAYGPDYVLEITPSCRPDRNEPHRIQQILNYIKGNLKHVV

Structure (SMILES): O=C(Cc1ccc(/C=C/C(=O)c2ncc[nH]2)cc1)Nc1ccc(F)cc1
- pIC50 (Histone deacetylase 2): 5.68
- pIC50 (Histone deacetylase 8): 5.85
- pIC50 (Histone deacetylase 3): 5.74
- pIC50 [1]: 5.70
- pIC50 (Histone deacetylase 1 [2]): 5.74

Structure (SMILES): Cn1c(CCCCCCC(=O)NO)nc2ccc(N(CCCl)CCCl)cc21
- pIC50 (Histone deacetylase 2): 8.00
- pIC50 (Histone deacetylase 4): 8.19
- pIC50 (Histone deacetylase 5): 6.97
- pIC50 (Histone deacetylase 3): 7.60
- pIC50 [1]: 7.14
- pIC50 (Histone deacetylase 1 [2]): 7.77

Structure (SMILES): CC[C@]1(O)C(=O)OCc2c1cc1n(c2=O)Cc2c-1nc1ccc(O)cc1c2/C=N/OCCCCCC(=O)NO
- pIC50 (A2780): 7.52
- pIC50 (HT-29 [3]): 7.52
- pIC50 [4]: 5.65
- pIC50 (A-431): 7.52
- pIC50 [5]: 7.52
- pIC50 (CAPAN-1): 7.52
- pIC50 [6]: 5.81
- pIC50 (Histone deacetylase 1 [7]): 5.28
- pIC50 (NCI-H460): 7.52
- pIC50 (HeLa): 7.52
- pIC50 [8]: 7.32
- pIC50 [9]: 5.03
- pIC50 (DU-145): 7.52
- pIC50 (HepG2 [10]): 7.52

Structure (SMILES): COc1cc(/C=C/C(=O)c2ccc(NC(=O)c3ccccc3CN3C(=O)c4ccccc4C3=O)cc2)cc(OC)c1OC
- pIC50 (Histone deacetylase 2): 6.37
- pIC50 (Histone deacetylase 1 [2]): 6.66

Structure (SMILES): COc1ccc(CN(C(=O)Cc2ccc(C(=O)Nc3ccccc3N)cc2)c2cc(OC)c(OC)c(OC)c2)cc1O
- pIC50 (Histone deacetylase 2): 5.52
- pIC50 (MGC-803): 7.41
- pIC50 (Histone deacetylase 3): 5.28
- pIC50 [1]: 4.11

Structure (SMILES): COc1ccc(S(=O)(=O)N(CCSC(=S)N2CCN(C)CC2)c2cc(OC)c(OC)c(OC)c2)cc1
- inhibition in vivo at 50 mg/kg (Bel-7402): 43%
- pIC50 (HepG2 [11]): 6.24
- pIC50 (SNU-475): 6.14

Structure (SMILES): COc1ccc2c3ccnc(C)c3n(CC3CCN(c4ncc(C(=O)NO)cn4)CC3)c2c1
- pIC50 (HT-29 [12]): 5.73
- pIC50 (A549 [13]): 5.22
- pIC50 (HepG2 [14]): 5.54

Structure (SMILES): COc1ccc(-c2ocnc2-c2cc(Br)c(OC)c(OC)c2)cc1OCCCCCC(=O)NO
- pIC50 (EA.hy 926): 6.39

Structure (SMILES): CCOC(=O)Nc1nc2ccc(-c3cc(Cc4n[nH]c(=O)c5ccccc45)ccc3F)cc2[nH]1
- pIC50 (Tubulin): 6.00
- half-life [15]: 3.28 h
- pIC50 (HCT-116 [16]): 6.45
- pIC50 [17]: 8.15
- pIC50 (A549 [18]): 6.85
- bioavailability [19]: 31%

Structure (SMILES): O=C(c1cc(Cc2n[nH]c(=O)c3ccccc23)ccc1F)N1CCN(c2c3ccccc3nc3ccccc23)CC1
- pIC50 [20]: 4.93
- pIC50 (MCF7): 4.86
- pIC50 (HCC1937): 5.10
- pIC50 (HCT-116 [21]): 4.89
- pIC50 (K562): 5.40

Structure (SMILES): COc1ccc(-c2cccc(-c3cc(OC)c(OC)c(OC)c3)n2)cc1C(=O)NO
- pIC50 (Tubulin): 5.62
- half-life [22]: 0.913 h
- CLint scaled [23]: 22.8 mL/min/kg

Structure (SMILES): CCc1c2c(nc3ccc(O)cc13)-c1cc3c(c(=O)n1C2)COC(=O)[C@]3(O)CC [7-ETHYL-10-HYDROXYCAMPTOTHECIN]
- pIC50 (DNA topoisomerase 1): 6.11

Structure (SMILES): Cc1ccc(Cn2cc(CSC(=S)N3CCN(C(=O)OC(C)(C)C)CC3)nn2)cc1
- pIC50 (Tubulin): 5.90
